Columns and labels:
SARS2 M^pro [1] = assay type: cell-based, SARS-CoV-2
SARS2 M^pro [2] = assay type: cell-based, SARS-CoV-2; remark: listed apart in the source
NL63 M^pro [3] = assay type: cell-based, HCoV-NL63; settings: 2-fold dilution series beginning at 100 μM
229E M^pro = assay type: cell-based, HCoV-229E
NL63 M^pro [4] = settings: in vitro studies; cited from earlier work

For `CCCCCCNC(=O)n1cc(F)c(=O)[nH]c1=O` [Carmofur], which “dose responsiveness of WT Luc reporter” value (SARS2 M^pro [1]) is on record?
The value was “tested negative at all concentrations”.

Which “dose responsiveness of WT Luc reporter” value (SARS2 M^pro [1]) does the source give for `CCOc1ccc2nc3cc(N)ccc3c(N)c2c1` [Ethacridine] here?
The value was “tested negative at all concentrations”.

Which “restoration of eGFP fluorescence of WT reporter” value (SARS2 M^pro [2]) does the source give for `CC(C)(C)NC(=O)N[C@H](C(=O)N1C[C@H]2[C@@H]([C@H]1C(=O)NC(CC1CCC1)C(=O)C(N)=O)C2(C)C)C(C)(C)C` (some centres unmarked) [boceprevir] here?
The value was “comparatively modest increase in signal”.

And the “maximal signal increase over background” value (NL63 M^pro [3])?
Its value is 1.9 fold.

What about the “maximal signal increase over background” value (229E M^pro) of the same molecule?
Its value is 4.3 fold.

And the “increase in signal of luciferase construct compared with eGFP construct” value (SARS2 M^pro [1])?
Its value is ~ 3 fold.

What about the “maximal signal increase over background” value (SARS2 M^pro [1]) of the same molecule?
The value was 16 fold.

And the IC50 (NL63 M^pro [4])?
The IC50 was ~100 µM.

With `O=c1c2ccccc2[se]n1-c1ccccc1` [ebselen] as the molecule, how does the “dose responsiveness of WT Luc reporter” value (SARS2 M^pro [1]) read?
Its value is “tested negative at all concentrations”.

With `Cc1ccc(NC(=O)c2ccc(CN3CCN(C)CC3)cc2)cc1Nc1nc(-c2cccnc2)cs1` [masitinib] as the molecule, how does the “dose responsiveness of WT Luc reporter” value (SARS2 M^pro [1]) read?
Its value is “tested negative at all concentrations”.

For `CC(C)(C)[C@H](NC(=O)C(F)(F)F)C(=O)N1C[C@H]2[C@@H]([C@H]1C(=O)N[C@H](C#N)C[C@@H]1CCNC1=O)C2(C)C` [nirmatrelvir], which “dose responsiveness of WT Luc reporter” value (SARS2 M^pro [1]) is on record?
Its value is “highest reporter signals at all tested concentrations”.

What does the source list for GC376?
restoration of eGFP fluorescence of WT reporter (SARS2 M^pro [2]): strong restoration of expression and eGFP fluorescence; maximal signal increase over background (NL63 M^pro [3]): 24 fold; maximal signal increase over background (229E M^pro): 72 fold; cell viability (293T cells; 48 h incubation, wide range of concentrations): cell viabilities remain consistent; dose responsiveness of WT Luc reporter (SARS2 M^pro [1]): causes increased reporter expression; increase in signal of luciferase construct compared with eGFP construct (SARS2 M^pro [1]): ~ 3 fold; maximal signal increase over background (SARS2 M^pro [1]): 100 fold

Which “cytotoxicity” value (293T cells) does the source give for GRL-0496 here?
The value was “no cytotoxicity”.

And the “dose responsiveness of WT Luc reporter” value (SARS2 M^pro [1])?
The value was “clear positive dose response”.

Source: paper PMC9239272 (mBio, 2022)
